Measurements taken from PubChem BioAssay AID2060904 (Molecular Pharmacology Branch, DTP, NCI, 2025).

Tested on: 349418-098-R-PDC complex spheroid viability
Experiment: Anticancer human tumor 349418-098-R-PDC patient-derived lung adenocarcinoma cell line growth inhibition [RAS]
Conditions: for IC50: curve of first compound; for viability, T/C: stronger effect = lower value
Summary of the method: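 Multi-cell-type spheroids: tumor cells plus HUVEC endothelial cells and mesenchymal stem cells. RAS-pathway inhibitors were combined with targeted agents, each dosed in half-log steps down from clinical Cmax, or from 10 microM when Cmax was unknown.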

[1] = second compound 0.000949 µM, first compound 0.0316 µM
[2] = second compound 0.000949 µM, first compound 0.1 µM
[3] = second compound 0.000949 µM, first compound 0.316 µM
[4] = second compound 0.000949 µM, first compound 1 µM
[5] = second compound 0.000949 µM, first compound 3.16 µM
[6] = second compound 0.000949 µM, first compound 10 µM
[7] = second compound 0.003 µM, first compound 0.0316 µM
[8] = second compound 0.003 µM, first compound 0.1 µM
[9] = second compound 0.003 µM, first compound 0.316 µM
[10] = second compound 0.003 µM, first compound 1 µM
[11] = second compound 0.003 µM, first compound 3.16 µM
[12] = second compound 0.003 µM, first compound 10 µM
[13] = second compound 0.00949 µM, first compound 0.0316 µM
[14] = second compound 0.00949 µM, first compound 0.1 µM
[15] = second compound 0.00949 µM, first compound 0.316 µM
[16] = second compound 0.00949 µM, first compound 1 µM
[17] = second compound 0.00949 µM, first compound 3.16 µM
[18] = second compound 0.00949 µM, first compound 10 µM
[19] = second compound 0.03 µM, first compound 0.0316 µM
[20] = second compound 0.03 µM, first compound 0.1 µM
[21] = second compound 0.03 µM, first compound 0.316 µM
[22] = second compound 0.03 µM, first compound 1 µM
[23] = second compound 0.03 µM, first compound 3.16 µM
[24] = second compound 0.03 µM, first compound 10 µM
[25] = second compound 0.0949 µM, first compound 0.0316 µM
[26] = second compound 0.0949 µM, first compound 0.1 µM
[27] = second compound 0.0949 µM, first compound 0.316 µM
[28] = second compound 0.0949 µM, first compound 1 µM
[29] = second compound 0.0949 µM, first compound 3.16 µM
[30] = second compound 0.0949 µM, first compound 10 µM
[31] = second compound 0.3 µM, first compound 0.0316 µM
[32] = second compound 0.3 µM, first compound 0.1 µM
[33] = second compound 0.3 µM, first compound 0.316 µM
[34] = second compound 0.3 µM, first compound 1 µM
[35] = second compound 0.3 µM, first compound 3.16 µM
[36] = second compound 0.3 µM, first compound 10 µM
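Note: spheroids exposed to compound for seven days before viability readout.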

CC(C)NCC(C(=O)N1CCN(c2ncnc3c2C(C)CC3O)CC1)c1ccc(Cl)cc1 (stereo unspecified) + CCn1c(-c2cccnc2C(C)OC)c2c3cc(ccc31)N1CCOC(CC(NC(=O)C(C(C)C)N(C)C(=O)C3(F)CCN(C(=O)C#CC(C)(C)N(C)C)CC3)C(=O)N3CCCC(N3)C(=O)OCC(C)(C)C2)C1
IC50 (second compound 0.000949 µM): 0.603 µM
IC50 (second compound 0.003 µM): 0.357 µM
IC50 (second compound 0.00949 µM): 0.501 µM
IC50 (second compound 0.03 µM): 0.507 µM
IC50 (second compound 0.0949 µM): 0.523 µM
IC50 (second compound 0.3 µM): 0.352 µM
viability, T/C [1]: 83.5%
viability, T/C [2]: 88.7%
viability, T/C [3]: 76%
viability, T/C [4]: 29.1%
viability, T/C [5]: 24.2%
viability, T/C [6]: 10.7%
viability, T/C [7]: 103%
viability, T/C [8]: 60.9%
viability, T/C [9]: 51.6%
viability, T/C [10]: 48.1%
viability, T/C [11]: 18.7%
viability, T/C [12]: 10.2%
viability, T/C [13]: 101%
viability, T/C [14]: 85.7%
viability, T/C [15]: 58.9%
viability, T/C [16]: 35%
viability, T/C [17]: 19.6%
viability, T/C [18]: 8.77%
viability, T/C [19]: 97.6%
viability, T/C [20]: 86.8%
viability, T/C [21]: 56.8%
viability, T/C [22]: 33.3%
viability, T/C [23]: 28.5%
viability, T/C [24]: 8.92%
viability, T/C [25]: 83.3%
viability, T/C [26]: 75.5%
viability, T/C [27]: 62.9%
viability, T/C [28]: 32.5%
viability, T/C [29]: 24.2%
viability, T/C [30]: 8.81%
viability, T/C [31]: 94.9%
viability, T/C [32]: 76.7%
viability, T/C [33]: 46.5%
viability, T/C [34]: 34.3%
viability, T/C [35]: 27.5%
viability, T/C [36]: 11%

CC(C)n1nc(-c2ccc3oc(N)nc3c2)c2c(N)ncnc21 + CCn1c(-c2cccnc2C(C)OC)c2c3cc(ccc31)N1CCOC(CC(NC(=O)C(C(C)C)N(C)C(=O)C3(F)CCN(C(=O)C#CC(C)(C)N(C)C)CC3)C(=O)N3CCCC(N3)C(=O)OCC(C)(C)C2)C1
IC50 (second compound 0.000949 µM): 0.0013 µM
IC50 (second compound 0.003 µM): 0.0021 µM
IC50 (second compound 0.00949 µM): 0.00258 µM
IC50 (second compound 0.03 µM): 0.00286 µM
IC50 (second compound 0.0949 µM): 0.00142 µM
IC50 (second compound 0.3 µM): 0.00148 µM
viability, T/C (second compound 0.000949 µM, first compound 0.000316 µM): 97.3%
viability, T/C (second compound 0.000949 µM, first compound 0.001 µM): 54.3%
viability, T/C (second compound 0.000949 µM, first compound 0.00316 µM): 33.3%
viability, T/C (second compound 0.000949 µM, first compound 0.01 µM): 10.8%
viability, T/C [1]: 6.42%
viability, T/C [2]: 5.48%
viability, T/C (second compound 0.003 µM, first compound 0.000316 µM): 91.7%
viability, T/C (second compound 0.003 µM, first compound 0.001 µM): 70.3%
viability, T/C (second compound 0.003 µM, first compound 0.00316 µM): 39.7%
viability, T/C (second compound 0.003 µM, first compound 0.01 µM): 12.8%
viability, T/C [7]: 6.14%
viability, T/C [8]: 5.04%
viability, T/C (second compound 0.00949 µM, first compound 0.000316 µM): 91.2%
viability, T/C (second compound 0.00949 µM, first compound 0.001 µM): 82.2%
viability, T/C (second compound 0.00949 µM, first compound 0.00316 µM): 42.7%
viability, T/C (second compound 0.00949 µM, first compound 0.01 µM): 13.9%
viability, T/C [13]: 6.63%
viability, T/C [14]: 5.25%
viability, T/C (second compound 0.03 µM, first compound 0.000316 µM): 98.7%
viability, T/C (second compound 0.03 µM, first compound 0.001 µM): 81.4%
viability, T/C (second compound 0.03 µM, first compound 0.00316 µM): 47.7%
viability, T/C (second compound 0.03 µM, first compound 0.01 µM): 16.8%
viability, T/C [19]: 6.13%
viability, T/C [20]: 5.01%
viability, T/C (second compound 0.0949 µM, first compound 0.000316 µM): 90.4%
viability, T/C (second compound 0.0949 µM, first compound 0.001 µM): 55.9%
viability, T/C (second compound 0.0949 µM, first compound 0.00316 µM): 35.7%
viability, T/C (second compound 0.0949 µM, first compound 0.01 µM): 13.3%
viability, T/C [25]: 7.14%
viability, T/C [26]: 4.64%
viability, T/C (second compound 0.3 µM, first compound 0.000316 µM): 67.4%
viability, T/C (second compound 0.3 µM, first compound 0.001 µM): 64.7%
viability, T/C (second compound 0.3 µM, first compound 0.00316 µM): 22%
viability, T/C (second compound 0.3 µM, first compound 0.01 µM): 10.9%
viability, T/C [31]: 6.85%
viability, T/C [32]: 4.69%

C[C@@H](NC(=O)c1ncnc(N)c1Cl)c1ncc(C(=O)Nc2cc(C(F)(F)F)c(Cl)cn2)s1 + CCn1c(-c2cccnc2C(C)OC)c2c3cc(ccc31)N1CCOC(CC(NC(=O)C(C(C)C)N(C)C(=O)C3(F)CCN(C(=O)C#CC(C)(C)N(C)C)CC3)C(=O)N3CCCC(N3)C(=O)OCC(C)(C)C2)C1
IC50 (second compound 0.000949 µM): 1.28 µM
IC50 (second compound 0.003 µM): 1.5 µM
IC50 (second compound 0.00949 µM): 1.43 µM
IC50 (second compound 0.03 µM): 1.58 µM
IC50 (second compound 0.0949 µM): 1.9 µM
IC50 (second compound 0.3 µM): 1.23 µM
viability, T/C [1]: 113%
viability, T/C [2]: 106%
viability, T/C [3]: 90.3%
viability, T/C [4]: 55.4%
viability, T/C [5]: 29.4%
viability, T/C [6]: 20.2%
viability, T/C [7]: 117%
viability, T/C [8]: 97.5%
viability, T/C [9]: 88.3%
viability, T/C [10]: 58.2%
viability, T/C [11]: 32.5%
viability, T/C [12]: 19.4%
viability, T/C [13]: 94.7%
viability, T/C [14]: 92.5%
viability, T/C [15]: 73.9%
viability, T/C [16]: 47.5%
viability, T/C [17]: 45.1%
viability, T/C [18]: 18.4%
viability, T/C [19]: 114%
viability, T/C [20]: 84.2%
viability, T/C [21]: 82%
viability, T/C [22]: 61.4%
viability, T/C [23]: 33.7%
viability, T/C [24]: 19.5%
viability, T/C [25]: 97.2%
viability, T/C [26]: 96.5%
viability, T/C [27]: 89.3%
viability, T/C [28]: 72.4%
viability, T/C [29]: 32.5%
viability, T/C [30]: 16.8%
viability, T/C [31]: 107%
viability, T/C [32]: 81.2%
viability, T/C [33]: 66.5%
viability, T/C [34]: 57.4%
viability, T/C [35]: 40.9%
viability, T/C [36]: 14.8%
